The values below come from US20050130134A1, “Means and methods for monitoring non-nucleoside reverse transcriptase inhibitor antiretroviral therapy and guiding therapeutic decisions in the treatment HIV-AIDS” (ViroLogic, Inc., priority 2000, published 2005).

The target in assay [1] is RT with P236L substitution (Human immunodeficiency virus type 1 group M subtype B, UniProt P04585, P823L). As to conditions: cited from earlier work; for previously reported effect of the P236L mutation: Dueweke et al. 1993.
In assay [2] the test system is patient 780 virus (RT K103N, P225H). As to the kind of experiment: Phenotypic susceptibility assay, patient 780 (FIG. 8B). Type of assay: cell-based, HIV. How it is done:
Phenotypic Drug Susceptibility and Resistance Profile: Patients 780. This is a second example of the third pattern of NNRTI susceptibility/resistance.
(§1) Transfections were performed using a calcium-phosphate precipitation procedure. […] Cell lysates were assayed for luciferase activity (FIG. 3). […] The drug inhibition curves are shown in (FIG. 3).

In assay [3] the test system is RTV-1058 clone 5 (RT L100I, K103N). As to the kind of experiment: Phenotypic susceptibility assay, RTV-1058 clone 5. The format is cell-based, HIV-1. How it is done: as §1
For assay [4], the system named is RTV-644 patient virus (RT K101E, G190S). The assay is described as follows: Phenotypic susceptibility assay, RTV-644 (patient 97-644 / 98-644). Type of assay: cell-based, HIV-1. As to conditions: for decrease in susceptibility: RTV-644 patient virus; for change in susceptibility / resistance: RTV-644 patient virus compared to reference virus. How it is done:
(§2) Resistance tests were carried out with resistance test vectors using two host cell types. Resistance test vector viral particles were produced by a first host cell (the resistance test vector host cell) that was prepared by transfecting a packaging host cell with the resistance test vector and the packaging expression vector. The resistance test vector viral particles were then used to infect a second host cell (the target host cell) in which the expression of the indicator gene is measured.
(§3) The resistance test vectors containing a functional luciferase gene cassette were constructed and host cells were transfected with the resistance test vector DNA. The resistant test vectors contained patient-derived reverse transcriptase and protease sequences that were either susceptible or resistant to the antiretroviral agents, such as nucleoside reverse transcriptase inhibitors, non-nucleoside reverse transcriptase inhibitors and protease inhibitors. The resistance test vector viral particles produced by transfecting the resistance test vector DNA into host cells, either in the presence or absence of protease inhibitors, were used to infect target host cells grown either in the absence of NRTI or NNRTI or in the presence of increasing concentrations of the drug. The amount of luciferase activity produced in infected target host cells in the presence of drug was compared to the amount of luciferase produced in infected target host cells in the absence of drug. Drug resistance was measured as the amount of drug required to inhibit by 50% the luciferase activity detected in the absence of drug (inhibitory concentration 50%, IC50). The IC50 values were determined by plotting percent drug inhibition vs. log10 drug concentration.
Host cells were seeded in 10-cm-diameter dishes and were transfected several days after plating with resistance test vector plasmid DNA and the envelope expression vector. Transfections were performed using a calcium-phosphate precipitation procedure. The cell culture media containing the DNA precipitate was replaced with fresh medium, from one to 24 hours, after transfection. […] HIV capsid protein (p24) levels in the harvested cell culture media were determined by an EIA method as described by the manufacturer (SIAC; Frederick, Md.). […] The inhibitory effect of the drug was determined using the following equation: % luciferase inhibition=1-(RLUluc[drug]÷RLUluc)×100 where RLUluc [drug] is the relative light unit of luciferase activity in infected cells in the presence of drug and RLUluc is the Relative Light Unit of luciferase activity in infected cells in the absence of drug. […]

Assay [5] deals with RTV-1058 clone 4 (RT K103N, Y188L). The assay is described as follows: Phenotypic susceptibility assay, RTV-1058 clone 4. Type of assay: cell-based, HIV-1. How it is done: as §1
In assay [6] the test system is HIV-1 reverse transcriptase P225H plus K103N, Y181C or both. The assay is described as follows: Phenotypic susceptibility assay, P225H with K103N, Y181C or K103N+Y181C. The format is cell-based. As to conditions: P225H added to K103N, Y181C or K103N+Y181C versus corresponding RTV lacking P225H. The method, then:
as §1
Resistance test vectors were constructed containing the P225H mutation alone and in combination with other known drug resistance mutations (K103N, Y181C) known to modulate the HIV susceptibility to NNRTIs. […] (Sakar G and Sommar S S (1994) Biotechniques 8(4), 404-407). […] The P225H mutation was also introduced into a RTV containing additional mutations at K103N, Y181C or both (K103N+Y181C).

The subject of assay [7] is RTV-1057 patient virus (RT A98G, Y181C). As to the kind of experiment: Phenotypic susceptibility assay, RTV-1057 (patient 98-1057). The format is cell-based, HIV-1. The method, then: as §1
Assay [8] deals with RTV-300 patient virus (RT K32N, M184V, Y188L). As to the kind of experiment: Phenotypic susceptibility assay, RTV-300 (patient 97-300). Type of assay: cell-based, HIV-1. How it is done:
as §1
This patient had been previously treated with d4T and 3TC (NRTIs), indinavir (a PR1) and efavirenz (an NNRTI).

Assay [9] concerns RTV-209 patient virus (RT E138A, Y188L). As to the kind of experiment: Phenotypic susceptibility assay, RTV-209 (patient 97-209). The format is cell-based, HIV-1. How it is done:
as §1
This patient had been previously treated with AZT, ddI, d4T and 3TC (NRTIs), indinavir (a PRIs) and adefovir. […].

For assay [10], the system named is RTV-302 patient virus (RT K103N, I135M, T200A, P225H). The assay is described as follows: Phenotypic susceptibility assay, RTV-302 (patient 97-302). The format is cell-based, HIV-1. The method, then:
as §1
This patient had been treated with d4T, indinavir and DMP-266 for a period of approximately 10 months. […] An IC50 was determined for each drug tested. Susceptibility of the patient virus to each drug was examined and compared to known patterns of susceptibility. […] Patient sample 97-302 was examined further for genotypic changes associated with the observed pattern of susceptibility.

The subject of assay [11] is patient 302 virus clones K103N, P225H versus K103N, I135M, R211K. As to conditions: patient 302 clones with versus without P225H, FIG. 8C. The method, then:
as §2, §3
(§4) Host cells were seeded in 10-cm-diameter dishes and were transfected several days after plating with resistance test vector plasmid DNA and the envelope expression vector. Transfections were performed using a calcium-phosphate precipitation procedure. The cell culture media containing the DNA precipitate was replaced with fresh medium, from one to 24 hours, after transfection. Cell culture media containing resistance test vector viral particles was harvested one to four days after transfection and was passed through a […] filter before being stored at −80° C. HIV capsid protein (p24) levels in the harvested cell culture media were determined by an EIA method as described by the manufacturer (SIAC; Frederick, Md.). Before infection, target cells (293 and 293/T) were plated in cell culture media. Control infections were performed using cell culture media from mock transfections (no DNA) or transfections containing the resistance test vector plasmid DNA without the envelope expression plasmid. One to three or more days after infection the media was removed and cell lysis buffer (Promega) was added to each well. […] The inhibitory effect of the drug was determined using the following equation: % luciferase inhibition=1-(RLUluc[drug]÷RLUluc)×100 where RLUluc [drug] is the relative light unit of luciferase activity in infected cells in the presence of drug and RLUluc is the Relative Light Unit of luciferase activity in infected cells in the absence of drug. IC50 values were obtained from the sigmoidal curves that were generated from the data by plotting the percent inhibition of luciferase activity vs. the log10 drug concentration.

Assay [12] concerns RTV-652 patient virus (RT V108I). The settings on record: >1 decrease, <1 increased susceptibility. How it is done: as §2, §3, §4
For assay [13], the system named is HIV reverse transcriptase mutation at codon 230 alone or in combination with codon 181. As to the kind of experiment: Phenotypic susceptibility assay, mutation at codon 230 alone or with codon 181. Type of assay: cell-based.
For assay [14], the system named is RTV-955 patient virus (RT K101E, K103N, Y181C, G190A mixtures). The assay is described as follows: Phenotypic susceptibility assay, RTV-955 (patient 98-955). The format is cell-based, HIV-1. How it is done: as §1
This patient had been previously treated with nelfinavir (a PR1).

Each structure is given as a SMILES string. “Also recorded” adds a separate entry of the source.

Consider `CC(C)Nc1cccnc1N1CCN(C(=O)c2cc3cc(NS(C)(=O)=O)ccc3[nH]2)CC1` [delavirdine], for which the “previously reported effect of the P236L mutation” value in [1] is reported as “delavirdine resistance”. Moreover, the “change in susceptibility” value in assay [2] is “reduced susceptibility”; in assay [6], “more susceptible to inhibition; also recorded: increase; also recorded: decreases the amount of delavirdine resistance”; in [10], “modest decrease; also recorded: reduced susceptibility”; in [13], “significant decrease”. Moreover, the loss of susceptibility in [3] is on record as 250 fold; in assay [5], 85 fold. Also, the decrease in susceptibility in [4] is listed as 2.5 fold; in assay [7], 35 fold; in assay [8] it was 25 fold; in assay [9], 75 fold; in assay [14] it was 4 fold. For the same compound, the “change in susceptibility / resistance” value in assay [4] is reported as “little or no resistance”. The “effect of P225H on resistance associated with K103N” value in assay [11] is “reduces the amount delavirdine resistance”. Moreover, the “fold change in susceptibility” value in [12] was found to be 0.97 fold.

Take `Cc1ccnc2c1NC(=O)c1cccnc1N2C1CC1` [nevirapine]: the “reduction of IC50” value in assay [1] (P236L substitution) is reported as 7 to 10 fold. Further, the “previously reported effect of the P236L mutation” value in assay [1] is reported as “nevirapine hypersensitivity”. In addition, the “change in susceptibility” value in assay [2] is given as “reduced susceptibility”; in [6], “did not significantly change; also recorded: little or no change; also recorded: does not decrease the amount of nevirapine resistance”; in assay [10], “significant decrease; also recorded: reduced susceptibility”; in [13] it was “significant decrease”. Further, the loss of susceptibility in [3] is listed as 120 fold; in assay [5], “greater than 800 fold”. The decrease in susceptibility in assay [4] was 600 fold; in assay [7] it was 610 fold; in assay [8], “greater than 800 fold”; in assay [9], “greater than 800 fold”; in [14], 530 fold. Also, the “change in susceptibility / resistance” value in assay [4] is given as “resistant; also recorded: large reduction in susceptibility”. Besides, in assay [11], the “effect of P225H on resistance associated with K103N” value was “does not alter the amount of nevirapine resistance”. Further, the “fold change in susceptibility” value in [12] is 5 fold.
